Results: ChEMBL document CHEMBL4382199, “Application of Virtual Screening to the Identification of New LpxC Inhibitor Chemotypes, Oxazolidinone and Isoxazoline” (J Med Chem, 2018)
Values after ≈ are worked out from the molar mass of the structure shown. Active and inactive are the calls of the source. No cut-off for these calls is given here.

How the values were obtained:
[1] = tested on: Klebsiella pneumoniae; test: Antimicrobial activity against Klebsiella pneumoniae ATCC 43816 after 20 hrs by CLSI protocol-based microdilution assay; format: functional; settings: ATCC 43816, 20 h
[2] = tested on: Klebsiella pneumoniae; test: Antibacterial activity against Klebsiella pneumoniae infected in lung infection mouse model assessed as log reduction in bacterial load in lungs at 200 mg/kg, sc dosed every 6 hrs measured after 48 hrs post first treatment; format: functional, organism-based
[3] = tested on: Klebsiella pneumoniae; test: Antibacterial activity against Klebsiella pneumoniae infected in mouse model of lung infection assessed as reduction in bacterial load in lung at 200 mg/kg, sc dosed every 6 hrs and measured after 48 hrs post first treatment; format: functional, organism-based
[4] = molecular target: T1, UDP-3-O-acyl-N-acetylglucosamine deacetylase (Pseudomonas aeruginosa (strain ATCC 15692 / PAO1 / 1C / PRS 101 / LMG12228), UniProt P47205); test: Binding affinity to Pseudomonas aeruginosa PAO1 NB52019 LpxC after 60 to 420 secs by SPR method
T1 sequence (P47205 whole entry): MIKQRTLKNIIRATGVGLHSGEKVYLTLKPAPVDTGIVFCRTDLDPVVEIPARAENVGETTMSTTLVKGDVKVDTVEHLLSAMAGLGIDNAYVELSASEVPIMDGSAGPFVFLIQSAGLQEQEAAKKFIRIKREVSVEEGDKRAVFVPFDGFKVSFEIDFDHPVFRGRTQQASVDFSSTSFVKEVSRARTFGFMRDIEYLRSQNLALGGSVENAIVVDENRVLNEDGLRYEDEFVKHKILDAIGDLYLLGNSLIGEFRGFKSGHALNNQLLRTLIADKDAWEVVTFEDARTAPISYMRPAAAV

[5] = tested on: Escherichia coli; test: Antimicrobial activity against Escherichia coli ATCC 25922 after 20 hrs by CLSI protocol-based microdilution assay; format: functional; settings: ATCC 25922, 20 h
[6] = tested on: Pseudomonas aeruginosa; test: Antimicrobial activity against Pseudomonas aeruginosa ATCC 27853 after 20 hrs by CLSI protocol-based microdilution assay; format: functional; settings: ATCC 27853, 20 h
[7] = Lipophilicity, log D of the compound at pH 7.4; format: physicochemical; settings: buffer
[8] = tested on: Klebsiella pneumoniae; test: Antibacterial activity against Klebsiella pneumoniae infected in mouse model of lung infection assessed as reduction in bacterial load in lung at 20 mg/kg, sc dosed every 6 hrs co-treated with 200 mg/kg vancomycin and measured after 48 hrs post first treatment (reference value: 4.5 log10CFU/g); format: functional
[9] = Protein binding in mouse plasma; format: ADME, cell-free; settings: read-out: PPB (converted)
[10] = Clearance in dog at 10 mg/kg, iv; format: ADME, organism-based, Canis lupus familiaris; settings: in vivo
[11] = Clearance in rat at 5 mg/kg, iv; format: ADME, organism-based; settings: in vivo
[12] = Volume of distribution at steady state in dog at 10 mg/kg, iv; format: ADME, organism-based, Canis lupus familiaris; settings: in vivo, read-out: Vdss
[13] = Half life in dog at 10 mg/kg, iv; format: ADME, organism-based, Canis lupus familiaris; settings: in vivo
[14] = Protein binding in dog plasma; format: ADME, cell-free, Canis lupus familiaris; settings: read-out: PPB (converted)
[15] = Half life in rat at 5 mg/kg, iv; format: ADME, organism-based; settings: in vivo
[16] = tested on: Pseudomonas aeruginosa; test: Antimicrobial activity against Pseudomonas aeruginosa infected in mouse model of neutropenic thigh infection assessed reduction in bacterial levels in thigh at 160 mg/kg/day, sc administered 2 hrs post infection every 6 hrs for 24 hrs; format: functional, organism-based
[17] = Volume of distribution at steady state in rat at 5 mg/kg, iv; format: ADME, organism-based; settings: in vivo, read-out: Vdss
[18] = Protein binding in human plasma; format: ADME, cell-free; settings: read-out: PPB (converted)
[19] = Solubility of the compound at pH 7.4; format: physicochemical; settings: buffer
[20] = Volume of distribution at steady state in mouse at 60 mg/kg, iv; format: ADME, organism-based; settings: in vivo, read-out: Vdss
[21] = Clearance in mouse at 60 mg/kg, iv; format: ADME, organism-based; settings: in vivo
[22] = Protein binding in rat plasma; format: ADME, cell-free; settings: read-out: PPB (converted)
[23] = tested on: Klebsiella pneumoniae; test: Inhibition of LpxC in Klebsiella pneumoniae ATCC 43816 assessed as antibacterial activity after 20 hrs in presence of vancomycin by CLSI protocol-based microdilution assay
[24] = tested on: Klebsiella pneumoniae; test: Inhibition of LpxC in Klebsiella pneumoniae ATCC 43816 assessed as antibacterial activity after 20 hrs in presence of rifampicin by CLSI protocol-based microdilution assay
[25] = Half life in mouse at 60 mg/kg, iv; format: ADME, organism-based; settings: in vivo
[26] = Solubility of the compound at pH 9; format: physicochemical; settings: buffer
[27] = tested on: Pseudomonas aeruginosa; test: Antimicrobial activity against Pseudomonas aeruginosa infected in mouse model of neutropenic thigh infection assessed reduction in bacterial levels in thigh at 105 mg/kg/day, sc administered 2 hrs post infection every 6 hrs for 24 hrs; format: functional, organism-based
[28] = tested on: Klebsiella pneumoniae; test: Antibacterial activity against Klebsiella pneumoniae infected in mouse model of lung infection assessed as reduction in bacterial load in lung at 20 mg/kg, sc dosed every 6 hrs and measured after 48 hrs post first treatment; format: functional
[29] = tested on: Klebsiella pneumoniae; test: Inhibition of LpxC in Klebsiella pneumoniae ATCC 43816 assessed as potentiation factor by measuring ratio of MIC of compound alone to MIC of compound in presence of vancomycin after 20 hrs by CLSI protocol-based microdilution assay
[30] = tested on: Klebsiella pneumoniae; test: Inhibition of LpxC in Klebsiella pneumoniae ATCC 43816 assessed as potentiation factor by measuring ratio of MIC of compound alone to MIC of compound in presence of rifampicin after 20 hrs by CLSI protocol-based microdilution assay

Row | Structure (SMILES) | MIC [1] [µg/mL] | Kd [4] [pM] | MIC [5] [µg/mL] | MIC [6] [µg/mL] | logD [7] | MIC [23] [µg/mL] | MIC [24] [µg/mL] | also measured
1 | CN[C@H](CC(C)C)C(=O)N[C@H]1C(=O)N[C@@H](CC(N)=O)C(=O)N[C@H]2C(=O)N[C@H]3C(=O)N[C@H](C(=O)N[C@H](C(=O)O)c4cc(O)cc(O)c4-c4cc3ccc4O)[C@H](O)c3ccc(c(Cl)c3)Oc3cc2cc(c3O[C@@H]2O[C@H](CO)[C@@H](O)[C@H](O)[C@H]2O[C@H]2C[C@](C)(N)[C@H](O)[C@H](C)O2)Oc2ccc(cc2Cl)[C@H]1O [VANCOMYCIN] | > 128 | – | – | – | – | – | – | Activity [2]: inactive; Activity [3]: inactive
2 | C[C@@](C[C@H]1CN(c2ccc(-c3ccccc3)cc2)C(=O)O1)(C(=O)NO)S(C)(=O)=O | 4 (≈ 9.56 µM) | 26 | 0.25 (≈ 0.597 µM) | 1 (≈ 2.39 µM) | 2.3 | – | – | –
3 | C[C@@](C[C@H]1CN(c2ccc(C#CC3CC3)cc2)C(=O)O1)(C(=O)NO)S(C)(=O)=O | 1 (≈ 2.46 µM) | – | 0.125 (≈ 0.308 µM) | 0.5 (≈ 1.23 µM) | 1.9 | 0.25 | 0.06 | Activity [8]: 2.5 log10CFU/g; fraction unbound [9]: 0.13; clearance [10]: 26 mL/min/kg; clearance [11]: 24 mL/min/kg; Vd [12]: 0.8 L/kg; half-life [13]: 42 min; fraction unbound [14]: 0.14; half-life [15]: 54 min; Activity [16]: Active; Vd [17]: 1 L/kg; fraction unbound [18]: 0.14; solubility [19]: 126 µg/mL (≈ 310 µM); Vd [20]: 1.6 L/kg; clearance [21]: 49 mL/min/kg; fraction unbound [22]: 0.11; half-life [25]: 330 min; solubility [26]: > 20000 µg/mL; Activity [27]: Active; Activity [28]: 4.5 log10CFU/g
4 | CO[C@H]1/C=C/O[C@@]2(C)Oc3c(C)c(O)c4c(O)c(c(/C=N/N5CCN(C)CC5)c(O)c4c3C2=O)NC(=O)/C(C)=C\C=C\[C@H](C)[C@H](O)[C@@H](C)[C@@H](O)[C@@H](C)[C@H](OC(C)=O)[C@@H]1C [RIFAMPIN] | 32 (≈ 38.9 µM) | – | – | – | – | – | – | –
5 | C[C@@](C[C@H]1CN(c2ccc(Br)cc2)C(=O)O1)(C(=O)NO)S(C)(=O)=O | > 64 | 210 | > 64 | 0.5 (≈ 1.19 µM) | 1 | – | – | –
6 | C[C@@](C[C@H]1CN(c2ccc(C3CC3)cc2)C(=O)O1)(C(=O)NO)S(C)(=O)=O | > 64 | 120 | 32 (≈ 83.7 µM) | 2 (≈ 5.23 µM) | 1.5 | – | – | –
7 | C[C@@](C[C@H]1CC(c2ccc(Br)cc2)=NO1)(C(=O)NO)S(C)(=O)=O | > 64 | 2600 | 32 (≈ 79 µM) | 4 (≈ 9.87 µM) | 1.2 | – | – | –
8 | CCCc1ccc(C2=NO[C@@H](C[C@](C)(C(=O)NO)S(C)(=O)=O)C2)cc1 | 16 (≈ 43.4 µM) | 200 | 4 (≈ 10.9 µM) | 1 (≈ 2.71 µM) | 1.7 | – | – | –
9 | C[C@@](C[C@H]1CC(c2ccc(C#CC3CC3)cc2)=NO1)(C(=O)NO)S(C)(=O)=O | 0.5 (≈ 1.28 µM) | 170 | 0.125 (≈ 0.32 µM) | 1 (≈ 2.56 µM) | 2.2 | 0.125 | 0.03 | fold change (FC) [29]: 4; fold change (FC) [30]: 16
10 | CC(C)(O)[C@H]1C[C@H](C#Cc2ccc(N3C[C@H](C[C@](C)(C(=O)NO)S(C)(=O)=O)OC3=O)cc2)C1 | 1 (≈ 2.09 µM) | 200 | 0.5 (≈ 1.04 µM) | 1 (≈ 2.09 µM) | 1.6 | 1 | 0.5 | fold change (FC) [29]: 1; fold change (FC) [30]: 2
11 | C/C=C/c1ccc(C2=NO[C@@H](C[C@](C)(C(=O)NO)S(C)(=O)=O)C2)cc1 | 16 (≈ 43.7 µM) | 300 | 2 (≈ 5.46 µM) | 1 (≈ 2.73 µM) | 2 | – | – | –
12 | C[C@@H](O)Cc1ccc(-c2ccc(N3C[C@H](C[C@](C)(C(=O)NO)S(C)(=O)=O)OC3=O)cc2)cc1 | 1 (≈ 2.1 µM) | 120 | 0.25 (≈ 0.525 µM) | 2 (≈ 4.2 µM) | 1.2 | – | – | –
13 | C[C@@](C[C@H]1CN(c2ccc(-c3ccccc3)cn2)C(=O)O1)(C(=O)NO)S(C)(=O)=O | 32 (≈ 76.3 µM) | 120 | 2 (≈ 4.77 µM) | 2 (≈ 4.77 µM) | 1.8 | – | – | –
14 | C[C@@H](O)[C@H](NC(=O)c1ccc(C#Cc2ccc(CN3CCOCC3)cc2)cc1)C(=O)NO | 0.5 (≈ 1.14 µM) | – | 0.125 (≈ 0.286 µM) | 2 (≈ 4.57 µM) | – | – | – | –
15 | C/C=C/c1ccc(N2C[C@H](C[C@](C)(C(=O)NO)S(C)(=O)=O)OC2=O)cc1 | 32 (≈ 83.7 µM) | 100 | 4 (≈ 10.5 µM) | 1 (≈ 2.61 µM) | 1.4 | – | – | –
16 | CC#Cc1ccc(N2C[C@H](C[C@](C)(C(=O)NO)S(C)(=O)=O)OC2=O)cc1 | 16 (≈ 42.1 µM) | 63 | 2 (≈ 5.26 µM) | 0.5 (≈ 1.31 µM) | 1.4 | 4 | 0.25 | fold change (FC) [29]: 4; fold change (FC) [30]: 64
17 | CCCc1ccc(N2C[C@H](C[C@](C)(C(=O)NO)S(C)(=O)=O)OC2=O)cc1 | 32 (≈ 83.2 µM) | 170 | 4 (≈ 10.4 µM) | 0.5 (≈ 1.3 µM) | 1.6 | 8 | 1 | fold change (FC) [29]: 4; fold change (FC) [30]: 32
18 | CC#Cc1ccc(C2=NO[C@@H](C[C@](C)(C(=O)NO)S(C)(=O)=O)C2)cc1 | 8 (≈ 22 µM) | 440 | 1 (≈ 2.74 µM) | 0.5 (≈ 1.37 µM) | 1.4 | 2 | 0.25 | fold change (FC) [29]: 4; fold change (FC) [30]: 32
